Entries after “also recorded” stand apart in the source; their conditions may differ. Where two headings read alike, the source gives them in different places. No end group written: not given here.
Key:
HERG potassium current = HERG potassium current (Homo sapiens, UniProt Q12809); conditions: cited from earlier work
HERG K+ channel [1] = target: T1, HERG K+ channel (Homo sapiens, UniProt Q12809)
Protocol: Cell functional assay using atomic absorption detection—Rubidium flux out of HERG-transfected CHO cells was characterized using a Shimadzu atomic absorption system. The amount of rubidium in the extracellular and intracellular compartments was determined after depolarization with 50 mM KCl, following a 3-minute incubation with test sample. The atomization buffer included 0.1% […]/1% HNO3 to suppress ionization of rubidium.
Minor modification of the published protocol was necessary due to different expression levels of the HERG protein in recombinant cells.
Two injections per sample are made into a Shimadzu AA and if the cv reaches 10%, a third injection is performed; the computer selects the two closer values.

HERG K+ channel [2] = target: T1, HERG K+ channel; remark: listed apart in the source
Protocol: Cell functional assay using membrane potential dye—A membrane potential dye-based functional assay based on the HERG-expressing CHO cells has been developed. This assay was performed on the same library in parallel with the radioligand and AA-based functional assay. HERG-expressing CHO cells were plated as for the AA assay, except they were loaded with […] DiBAC4 instead of RbCl. Test samples or controls were added inside a Molecular Devices FlexStation and readings were taken over a 25 minute time frame.
Membrane Potential Assay Procedure—100 uL of 250,000 cells/mL in media were added to a 96-well assay plate and cultured overnight. The cells were washed with Hanks/HEPES buffer with 2 g/L of glucose (loading buffer) and 100 uL of warmed loading buffer was added. 80 uL of the FLIPR Membrane Potential dye (Molecular Devices; dissolved in loading buffer) was then added and the samples incubated for at 45 min at 37° C. Drugs (10× final concentration) in loading buffer were run along with no-drug controls. […] […] Maximum response plateau is expected at approximately 7 minutes. This value will be used for EC50 calculation. […] For the other “actives”, IC50 values will be determined in this assay and at 1 or 2 concentrations in the Rb^+ flux assay.
One whole cell based functional assay we employed was based on the voltage sensitive dye DiBac4, using a detection method originally developed by Dr. Vince Groppi of Pharmacia-Upjohn FLIPR and FlexStation fluorescence detection systems. Cells expressing ion channels like HERG protein are hyperpolarized in the resting state. Inhibition of ion channel activities allows cells to return to normal potential. As the cell membrane becomes more positive, dye migrates into cell membrane, increasing the quantum efficiency of the dye and thus increasing fluorescence. […] Large number of compounds may be readily tested in either 96- or 384-well format. The mechanism of detection is based on the dye translocation in response to changes of the membrane environment. In certain circumstances, it may be desirable to perform confirmatory assays.

HERG protein = HERG protein (Homo sapiens, UniProt Q12809)
Sequence of HERG protein (Q12809 whole entry): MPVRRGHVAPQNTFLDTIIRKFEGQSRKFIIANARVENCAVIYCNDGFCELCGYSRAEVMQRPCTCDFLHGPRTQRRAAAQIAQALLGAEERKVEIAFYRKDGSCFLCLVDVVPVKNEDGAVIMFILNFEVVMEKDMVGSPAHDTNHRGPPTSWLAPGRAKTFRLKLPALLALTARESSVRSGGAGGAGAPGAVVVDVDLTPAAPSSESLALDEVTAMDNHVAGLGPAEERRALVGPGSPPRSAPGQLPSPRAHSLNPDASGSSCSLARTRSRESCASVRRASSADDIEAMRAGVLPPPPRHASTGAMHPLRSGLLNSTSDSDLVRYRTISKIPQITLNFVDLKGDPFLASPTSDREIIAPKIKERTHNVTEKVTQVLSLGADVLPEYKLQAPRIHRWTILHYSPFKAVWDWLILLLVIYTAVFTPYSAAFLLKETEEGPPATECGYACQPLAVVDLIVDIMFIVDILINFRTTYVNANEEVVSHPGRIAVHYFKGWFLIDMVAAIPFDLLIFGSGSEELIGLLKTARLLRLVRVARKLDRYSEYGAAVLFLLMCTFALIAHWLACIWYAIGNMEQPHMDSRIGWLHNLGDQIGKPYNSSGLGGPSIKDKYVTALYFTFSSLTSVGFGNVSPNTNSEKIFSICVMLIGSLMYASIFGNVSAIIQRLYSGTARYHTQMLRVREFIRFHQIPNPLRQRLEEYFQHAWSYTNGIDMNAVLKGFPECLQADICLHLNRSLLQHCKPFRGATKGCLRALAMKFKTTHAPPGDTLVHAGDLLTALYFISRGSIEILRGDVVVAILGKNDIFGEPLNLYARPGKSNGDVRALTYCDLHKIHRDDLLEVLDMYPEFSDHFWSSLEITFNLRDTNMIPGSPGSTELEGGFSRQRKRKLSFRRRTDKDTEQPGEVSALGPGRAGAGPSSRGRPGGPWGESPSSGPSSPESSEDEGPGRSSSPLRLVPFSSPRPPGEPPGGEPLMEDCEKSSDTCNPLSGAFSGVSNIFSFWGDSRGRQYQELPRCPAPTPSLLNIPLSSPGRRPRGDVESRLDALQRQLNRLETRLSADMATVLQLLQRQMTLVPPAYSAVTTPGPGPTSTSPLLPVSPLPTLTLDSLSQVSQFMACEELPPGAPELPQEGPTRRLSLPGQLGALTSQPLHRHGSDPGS
Protocol: Membrane preparations and ligand binding assays—Frozen cell pellets were first thawed and homogenized in 10 to 20 ml of assay buffer. An aliquot was taken for protein determination and the remaining homogenate was centrifuged (48,000×g, 10 min., 4° C.). According to the determined protein concentration, the resultant pellet was suspended in Heylen's buffer and added to radioligand and test compound. […] Bound radioactivity was determined by liquid scintillation spectroscopy.
Sources of radioligand—Various different radioligands were used in order to identify candidates for a given binding site.

HERG K+ channel [3] = target: T1, HERG K+ channel; remark: listed apart in the source
[4] = radiolabeled form, wild type vs recombinant CHO cells

T1 sequence (Q12809 whole entry): as above
Sequence of HERG potassium current (Q12809 whole entry): as above

For `CC[C@H]1OC(=O)[C@H](C)[C@@H](O[C@H]2C[C@@](C)(OC)[C@@H](O)[C@H](C)O2)[C@H](C)[C@@H](O[C@@H]2O[C@H](C)C[C@H](N(C)C)[C@H]2O)[C@](C)(OC)C[C@@H](C)C(=O)[C@H](C)[C@@H](O)[C@]1(C)O` [Clarithromycin], the IC50 (HERG potassium current) is listed as 45.7 µM.

For `COC(=O)C1=C(C)NC(C)=C(C(=O)OCCN(C)Cc2ccccc2)C1c1cccc([N+](=O)[O-])c1` (centres unmarked) [nicardipine, Nicardipine], the “activity in the assay using atomic absorption” value (HERG K+ channel [1]; 10^−5 M, room temperature) was “modestly active”, the “activity in the dye-based assay” value (HERG K+ channel [2]; 10^−5 M, room temperature) was “lack of functional activity; also recorded: did not exhibit any activity” and the “activity in the dye-based assay” value (HERG K+ channel [2]; 10^−5 M, room temperature, listed as Nicardipine) was “lacked activity”.

With “[^125I]-BeKm-1: custom preparation of the iodinated scorpion toxin (RPTDIKCSESYQCFPVCKSRFGKTNGRCVNGFCDCF; ends and bridges not checked; also: 125I iodinated, site not given here; UniProt Q9BKB7 22-57, looked up)” the “binding of radiolabeled ligand, specificity for the recombinant protein” value (“binding of radiolabeled ligand” below) (HERG protein; [4]) was “did not observe sufficient binding”.

With `Fc1ccc(C(OCCN2CCN(CCCc3ccccc3)CC2)c2ccc(F)cc2)cc1` [GBR12909] the “activity in all three assays” value (HERG K+ channel [3]) was “consistent and relatively potent activity”.

For `O=C(CCCN1CCC(O)(c2ccc(Cl)cc2)CC1)c1ccc(F)cc1` [haloperidol, Haloperidol], the “inhibition of HERG channel (Rb+ efflux), dose response” value (HERG K+ channel [1]) was “completely inhibited”.

With `COC(=O)[C@H]1[C@@H](c2ccc(F)cc2)C[C@@H]2CC[C@H]1N2C` [WIN-35428] the “binding of radiolabeled ligand” value (HERG protein; [4]) was “None of these compounds indicated sufficient specificity”.

For `c1ccc(CCCN2CCN(CCOC(c3ccccc3)c3ccccc3)CC2)cc1` [GBR12935], the “activity in all three assays” value (HERG K+ channel [3]) was “consistent and relatively potent activity”.

For `CC(C)NCC(O)c1ccc(NS(C)(=O)=O)cc1` (racemic) [sotalol, (+/−)sotalol], the “activity in the assay using atomic absorption” value (HERG K+ channel [1]) was “modestly active” and the “activity in the dye-based assay” value (HERG K+ channel [2]) was “did not exhibit any activity”.

With `O=C(CCCN1CCC(O)(c2ccc(Cl)cc2)CC1)c1ccc(F)cc1` [[^3H]-Haloperidol] the “binding of radiolabeled ligand” value (HERG protein) was “high binding levels with both the wild type and the recombinant CHO cells”.

With `O=c1[nH]c2ccccc2n1C1CCN(CCCC(c2ccc(F)cc2)c2ccc(F)cc2)CC1` [pimozide, Pimozide] the “activity in all three assays” value (HERG K+ channel [3]) was “consistent and relatively potent activity” and the “inhibition of HERG channel (Rb+ efflux), dose response” value (HERG K+ channel [1]) was “completely inhibited”.

From patent US20060136140A1, “Method for identification and functional characterization of agents which modulate ion channel activity” (priority 2004, published 2006)
